# Test results taken from ChEMBL document CHEMBL5131545, “Targeting NOX2 via p47/phox-p22/phox Inhibition with Novel Triproline Mimetics” (ACS Med Chem Lett, 2022).
# *1 amine or outer side, *2 acyl side, *3 side chain or, on linkers, in order; H or OH if unused. Where a SMILES comes first, the peptide text is derived from it. The star is where a group is joined. X1 = Clc1ccc(-c2cccc(N*)c2)cc1Cl; Suc = O=C(CCC(=O)[*:2])[*:1]; X2 = C(CC1CC1)N*
# Molecular target: T1, Neutrophil cytosol factor 1 (Homo sapiens, UniProt P14598)
# T1 sequence (P14598 whole entry): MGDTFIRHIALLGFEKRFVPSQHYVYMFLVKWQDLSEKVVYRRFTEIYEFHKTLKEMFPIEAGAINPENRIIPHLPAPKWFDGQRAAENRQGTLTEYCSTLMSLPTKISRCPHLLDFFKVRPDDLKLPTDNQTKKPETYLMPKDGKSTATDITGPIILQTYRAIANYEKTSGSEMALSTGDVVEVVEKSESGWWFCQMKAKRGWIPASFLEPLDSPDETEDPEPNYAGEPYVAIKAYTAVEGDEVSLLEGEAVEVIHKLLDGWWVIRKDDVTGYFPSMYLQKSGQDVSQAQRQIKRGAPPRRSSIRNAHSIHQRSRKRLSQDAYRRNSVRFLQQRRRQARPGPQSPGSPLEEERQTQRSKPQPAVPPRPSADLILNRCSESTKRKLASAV
# Experiment: Binding affinity to human N-terminal TEV cleavable 6His tagged p47phox (151-285 residues) assessed as dissociation […] constant by Surface plasmon resonance assay
row,Kd [nM],SMILES
1,312,N=C(N)NCCC[C@H](NC(=O)[C@@H]1CCC[C@H]1[C@@H](O)[C@@H]1CCCN1C(=O)[C@@H]1CCCN1C(=O)CCC(=O)Nc1cccc(-c2ccc(Cl)c(Cl)c2)c1)C(=O)NCCC1CC1
2,5710,N=C(N)NCC1CCN(C(=O)[C@@H]2CCCN2C(=O)[C@@H]2CCCN2C(=O)[C@@H]2CCCN2C(=O)CCC(=O)Nc2cccc(-c3cnco3)c2)CC1
3,> 30000,N=C(N)NCCC[C@H](NC(=O)[C@@H]1CCCN1C(=O)[C@@H]1CCC[C@H]1[C@@H](O)[C@@H]1CCCN1C(=O)CCC(=O)Nc1cccc(-c2ccc(Cl)c(Cl)c2)c1)C(=O)NCCC1CC1
4,214,C[C@H](NC(=O)[C@@H]1CCCN1C(=O)[C@@H]1CCCN1C(=O)[C@H](CCCNC(=N)N)NC(=O)[C@@H]1CCCN1C(=O)[C@@H]1CCCN1C(=O)[C@@H]1CCCN1C(=O)[C@H](CC(N)=O)NC(=O)[C@H](CO)NC(=O)[C@@H]1CCCN1C(=O)[C@@H]1CCCN1)C(=O)O (H-PPSNPPPRPPA-OH)
5,43,N=C(N)NCCC[C@H](NC(=O)[C@@H]1CCCN1C(=O)[C@@H]1CCCN1C(=O)[C@@H]1CCCN1C(=O)CCC(=O)Nc1cccc(-c2ccc(Cl)c(Cl)c2)c1)C(=O)NCCC1CC1 ({X1-Suc}-PPPR-X2)
